Assay results from ChEMBL document CHEMBL3727348, “3-(aryl or heteroaryl) methyleneindolin-2-one derivatives as inhibitors of cancer stem cell pathway kinases for the treatment of cancer” (2014).

How the values were obtained:
Type in all cases: functional, cell-based
ACHN [1] = assay: Cytotoxic activity against human ACHN cancer stem cells incubated for 72 hrs by Cell-titer-Glo luminescence assay
A549 [2] = assay: Cytotoxic activity against human A549 bulk cells incubated for 72 hrs by Cell-titer-Glo luminescence assay; conditions: A549, 72 h
ACHN [3] = assay: Cytotoxic activity against human ACHN bulk cells incubated for 72 hrs by Cell-titer-Glo luminescence assay
A549 [4] = assay: Cytotoxic activity against human A549 cancer stem cells incubated for 72 hrs by Cell-titer-Glo luminescence assay; conditions: A549, 72 h
FaDu [5] = assay: Cytotoxic activity against human FADU bulk cells incubated for 72 hrs by Cell-titer-Glo luminescence assay
FaDu [6] = assay: Cytotoxic activity against human FADU cancer stem cells incubated for 72 hrs by Cell-titer-Glo luminescence assay

SMILES | IC50 (ACHN [1]) [µM] | IC50 (A549 [2]) [µM] | IC50 (ACHN [3]) [µM] | IC50 (A549 [4]) [µM] | IC50 (FaDu [5]) [µM] | IC50 (FaDu [6]) [µM]
CCN(CC)CCNC(=O)c1c(C)[nH]c(/C=C2\C(=O)Nc3cc(-c4cnc5ccccc5n4)ccc32)c1C | 6.97 | 7.07 | 10.9 | 42.6 | 7.45 | 2.24
CCN(CC)CCNC(=O)c1c(C)[nH]c(/C=C2\C(=O)Nc3ccc(-c4nc5ccccc5s4)cc32)c1C | 0.98 | 3.73 | 9.53 | 4.13 | 4.93 | 5.97
CCN(CC)CCNC(=O)c1c(C)[nH]c(/C=C2\C(=O)Nc3ccc(-c4cnc5ccccc5c4)cc32)c1C | 0.62 | 3.85 | 6.39 | 6.83 | 4.59 | 5.47
CCN(CC)CCNC(=O)c1c(C)[nH]c(/C=C2\C(=O)Nc3ccc(-c4cnc5cccnn45)cc32)c1C | 2.73 | 3.66 | 3.64 | 6.64 | 1.74 | 0.06
CCN(CC)CCNC(=O)c1c(C)[nH]c(/C=C2\C(=O)Nc3ccc(-c4ncccc4C)cc32)c1C | 1.88 | 4.14 | 4.15 | 13.1 | 7.67 | 20
CCN(CC)CCNC(=O)c1c(C)[nH]c(/C=C2\C(=O)Nc3ccc(-c4ncccc4OC)cc32)c1C | 1.41 | 7.48 | 7.14 | 6.84 | 2.63 | 0.07
CCN(CC)CCNC(=O)c1c(C)[nH]c(/C=C2\C(=O)Nc3cc(-c4ccc(C(=O)c5ccccc5)cc4)ccc32)c1C | 1.63 | 3.65 | 4.11 | 3.16 | 4.46 | 1.46
CCN(CC)CCNC(=O)c1c(C)[nH]c(/C=C2\C(=O)Nc3ccc(-c4ccc(OC)cc4C)cc32)c1C | 1.42 | 1.74 | 2.26 | 4.61 | 2.31 | 1.4
CCN(CC)CCNC(=O)c1c(C)[nH]c(/C=C2\C(=O)Nc3ccc(-c4cnccn4)cc32)c1C | 2.65 | 10.6 | 10.1 | 13.2 | 6.62 | 0.23
CCN(CC)CCNC(=O)c1c(C)[nH]c(/C=C2\C(=O)Nc3ccc(-c4cc(-c5ccccc5)ccn4)cc32)c1C | 0.9 | 1.5 | 2.41 | 2 | 2.58 | 9.67
CCN(CC)CCNC(=O)c1c(C)[nH]c(/C=C2\C(=O)Nc3ccc(-c4cscc4C)cc32)c1C | 0.48 | 2.01 | 2.68 | 3.94 | 3.74 | 9.1
O=C1Nc2ccc(-c3csc(C4CCNCC4)n3)cc2/C1=C/c1cc2ccccc2[nH]1 | 0.1 | 5.55 | 4.12 | 2.04 | 5.16 | 0.76
CCN(CC)CCNC(=O)c1c(C)[nH]c(/C=C2\C(=O)Nc3ccc(-c4cnc5ccccc5n4)cc32)c1C | 5.59 | 8.13 | 5.73 | 42.3 | 2.66 | 0.04
O=C1Nc2ccc(-c3csc(-c4ccncc4)n3)cc2/C1=C/c1cnc[nH]1 | 28.9 | 9.19 | 3.61 | 7.18 | 1.66 | 22.1
CCN(CC)CCNC(=O)c1c(C)[nH]c(/C=C2\C(=O)Nc3ccc(-c4cccc(C#N)c4C)cc32)c1C | 0.57 | 2.8 | 5.23 | 4.48 | 4.27 | 4.73
Cc1[nH]c(/C=C2\C(=O)Nc3ccc(-c4ccc(-c5ccccc5)s4)cc32)c(C)c1C(=O)N1CCOCC1 | 0.23 | 10.1 | 12.8 | 11 | 21.1 | 2.47
